# Test results as given in patent US10835500B2, “Medicament for accelerated wound healing” (Symrise AG, priority 2014, dated 2020).
# Experiments:
# Type in all cases: cell-based, human
# [1] = tested on: cAMP content of HaCaT cells; experiment: cAMP assay (cAMP-Glo) in HaCaT cells
# Description: In order to identify the calcium channel through which calcium ions flow from the outside into the cytosol of the skin cells, the CNG channel blocker L-cis-diltiazem was used. […] An additional cAMP assay was conducted in order to verify the data of pharmacological characterization by means of the calcium imaging technique. For this purpose, HaCaT cells with various Sandalore® concentrations were stimulated, and cAMP content was determined.
# Pharmacological characterization of Sandalore®-induced signal cascade in human keratinocytes. A)-D). Shown are representative calcium imaging traces of primary keratinocytes in the presence of a blocker (blue). The horizontal bars correspond to the application times. 100 μM of ATP was used at the end of each measurement as a positive control stimulus. A) Measurement with calcium-free extracellular solution (+10 mM EGTA). B) Measurement with the adenylyl cyclase blocker SQ-22536 (100 μM). C) Use of the phospholipase-C blocker U-73122 (10 μM). 100 μM of histamine was taken as a positive control. D) Measurement with the CNG channel blocker L-cis-diltiazem (150 μM). E) Overview of pharmacological measurement of HaCaT cells and primary keratinocytes (Kera). […] Significance was determined between HaCaT cells stimulated with Sandalore® and stimulated with an equivalent volume of DMSO (0.2%). […]
# ERK1/2 MAPK = experiment: Western Blot, phosphorylation of ERK1/2 MAPK in HaCaT cells; details: 500 μM
# Description: In the following, an investigation was to be conducted to determine whether a MAPK signalling pathway is activated by Sandalore® stimulation in skin cells, and if so, which pathway is involved. For detection, HaCaT cells were stimulated for 0-30 min with 500 μM of Sandalore®, and the proteins were then isolated and used in Western Blot assays.
# In order to reveal a possible interaction of the two MAPK signalling pathways, ERK1/2 phosphorylation in the presence of the p38 MAPK inhibitor SB203580 and p38 MAPK phosphorylation in the presence of the ERK1/2 MAPK inhibitor U0126 were investigated. Phosphorylation was increased for both kinases in the presence of the respective inhibitors compared to the cells stimulated with Sandalore® only. This effect was significant for p38 MAPK (FIG. 17c).
# Effect of Sandalore® stimulation on phosphorylation of MAP kinases in skin cells. A) Western Blot for investigating the phosphorylation of the MAP kinases in HaCaT cells stimulated for 0, 5, 15 and 30 min with Sandalore®(500 μM). In order to confirm uniform protein volume, ▪-tubulin was used as a control. ERK1/2: 42/44 kDa; p38: 43 kDa; JNK/SAPK: 46/54 kDA; ▪-tubulin: 52 kDa. B) Quantitative evaluation of p38 and ERK1/2 phosphorylation of HaCaT cells stimulated for 30 min with Sandalore®(500 μM) or additionally with the p38 inhibitor 5B203580 (10 μM) or ERK1/2 inhibitor U0126 (10 μM). For evaluation, the ratio of the phosphorylated (p) and unphosphorylated proteins was established and compared to that of untreated cells. Mean values including standard error. Mann-Whitney U test. *: p<0.05; ***: p<0.001. In C), the inhibitors of the respective other MAP kinase were used, and phosphorylation was compared to the cells stimulated with Sandalore® (500 μM) alone. Mean values including standard error. Mann-Whitney U test. *: p<0.05. The Western Blot analyses were carried out with three different protein isolations.
# IL-8 = experiment: ELISA of secreted IL-8 in supernatant of HaCaT cells; details: 24-hour stimulation, 500 μM
# Description: In order to investigate interleukin secretion, quantitative real-time PCR was first carried out. For this purpose, RNA from HaCaT cells was used that had previously been stimulated for 6 or 24 hours with Sandalore®. Detection was carried out with specific primers of various interleukins (IL-1α, IL-1β, IL-6, IL-8) and tumor necrosis factor (TNF▪). […] In order to corroborate the results, an ELISA assay was carried out, in which the secreted interleukins in the supernatant of the cells can be detected by means of an immunological reaction. By means of the assay used, secretion of the interleukins (IL-1α, IL-1β, IL-2, IL-4, IL-6, IL-8, IL-10, IL-12, and IL-17α), TNFα, γ-interferon (IFNγ), and granulocyte macrophage colony-stimulating factor (GMCSF) was investigated.
# Investigation of interleukin secretion and phosphorylation of Akt protein kinase after Sandalore® stimulation. A) Investigation of the regulation of interleukins in HaCaT cells by means of qRT-PCR after stimulation with Sandalore® (500 μM) for 6 h and 24 h. 0.1% DMSO was used as a control. GAPDH was used as a reference gene, and the relative expression between untreated and stimulated cells was determined. Mean values including standard error. n=3 experiments. […] The measured optical density of the treated cells at 450 nm was expressed relative to the background. […]
# protein kinase Akt = experiment: Western Blot, phosphorylation of protein kinase Akt in HaCaT cells
# Description: In addition to the phosphorylated kinases already detected, the phosphorylation of protein kinase Akt was investigated. For this purpose, HaCaT cells were stimulated with Sandalore® for 0, 5, 15 and 30 min, and phosphorylation was investigated by means of Western Blot assays and special antibodies to the unphosphorylated or phosphorylated form of the Akt-protein.
# Investigation of interleukin secretion and phosphorylation of Akt protein kinase after Sandalore® stimulation. A) Investigation of the regulation of interleukins in HaCaT cells by means of qRT-PCR after stimulation with Sandalore® (500 μM) for 6 h and 24 h. 0.1% DMSO was used as a control. GAPDH was used as a reference gene, and the relative expression between untreated and stimulated cells was determined. Mean values including standard error. n=3 experiments. B) ELISA assay for the detection of interleukins in the supernatant of HaCaT cells stimulated for 24 h with Sandalore® (500 μM). 0.1% DMSO was used as a control. The measured optical density of the treated cells at 450 nm was expressed relative to the background. Supernatants of three independent stimulations were used. Mean values including standard error. Mann-Whitney U test. *: p<0.05. C) Western Blot for investigating phosphorylation of Akt protein kinase by HaCaT cells stimulated for 0, 5, 15, and 30 min with Sandalore® (500 μM). […]
smiles,measurement,setting,value
CC1=CCC(CCC(C)C(C)O)C1(C)C (stereo not shown) [Sandalore®],cAMP content,[1]; 10-minute stimulation with various concentrations,dose-dependent cAMP increase
same,EC50,"[1]; 10-minute stimulation, 1 μM-10,000 μM, read-out: EC50 value of cAMP increase",197 µM
same,"phosphorylation of ERK1/2 MAPK, quantification",ERK1/2 MAPK; 30-minute stimulation,significant increase
same,phosphorylation of ERK1/2 MAPK,ERK1/2 MAPK; within 5-30 min,increased phosphorylation
same,secretion of IL-8 relative to the control (0.1% DMSO),IL-8,not significantly higher than the control
same,time until Akt kinase was phosphorylated,"protein kinase Akt; 500 μM, 0, 5, 15 and 30 min",≤ 5 min
same,activation of the protein kinase Akt,protein kinase Akt; summary statement,activated
